Source: US20250170106A1, “USE OF SU3327 IN PREPARATION OF MEDICAMENT FOR ENHANCING EFFICACY OF POLYMYXIN AGAINST BACTERIAL INFECTION” (XIAMEN HANLIXIN PHARMACEUTICAL CO., LTD., priority 2022, published 2025)

How the values were obtained:
K. pneumoniae 1202-45-5 [1] = assay: Thigh infection model of neutropenic BALB/c mice infected with drug resistant bacteria; format: in vivo; details: 10 mg/kg body weight each drug, intraperitoneal, 24 hour post infection; for bacteria loading in the thigh of the mice: twice 8 h apart, K. pneumoniae 1202-45-5
Method: In order to avoid the influence of mice's own immunity on the experiments, all mice were administered in advance with cyclophosphamide twice, four days and one day before infection, respectively, 100 mg/kg intraperitoneal injection each time, resulting in neutropenia and immune deficiency in the mice. 24 female BALB/c mice (weighing about 20 g) aged 6-8 weeks old were prepared. K. pneumoniae 1202-45-5 in logarithmic phase was re-suspended with a PBS buffer to prepare a suspension at the concentration of 1×10^7 CFU/mL; in the mice, the total amount of bacteria injected into the thigh of each mouse was 1×10^6 CFUs in the end. Then they were randomly divided into model control group (solvent treatment group), Polymyxin E treatment group (10 mg/kg body weight), SU3327 treatment group (10 mg/kg body weight), and combined treatment group of SU3327 (10 mg/kg body weight)+Polymyxin E (10 mg/kg body weight) (6 mice in each group). The treatments are detailed as follows:
(§1) Solvent control treatment group: 0.1 mL of the suspension of K. pneumoniae 1202-45-5 was intramuscularly injected into a mouse in the thigh on the right side of its abdominal cavity; one hour later, the mouse was intraperitoneally injected with 200 μL of a PBS buffer.
as §1, with “Polymyxin E” for “Solvent control”, “solution of drug, Polymyxin E (1 mg/mL); the final dose was 10 mg/kg body weight;” for “PBS buffer.”
as §1, with “SU3327” for “Solvent control”, “solution of drug, SU3327 (1 mg/mL); the final dose was 10 mg/kg body weight; […]” for “PBS buffer.”

JNK = details: substrate-competitive JNK inhibitor; cited from earlier work
K. pneumoniae 1202-45-5 [2] = assay: In vitro bacterial growth (bactericidal) curve; format: cell-based, Klebsiella pneumoniae; details: continuous treatment for 24 h, Polymyxin E 1 μg/mL, SU3327 20 μg/mL, alone or combined
Method: (§2) 6.0 g powdered beef extract, 1.5 g soluble starch, 17.5 g acid hydrolysate of casein, and 17.0 g agar were weighed, to which 900 mL distilled water was added, with the pH adjusted to 7.3, and the volume to 1000 mL. The mixture was subject to autoclave at 121° C. for 15 minutes, and then cooled to 50° C., poured into a sterile plate, and dried for later use.
(§3) Following culturing of K. pneumoniae 1202 and K. pneumoniae 1202-45-5 in BHI broth for 6-8 hours, the bacteria were diluted to a concentration of 10^6 colony count using a turbidimeter.
(§4) For K. pneumoniae 1202, drug treatment concentrations were set as follows: Polymyxin E (0.25 μg/mL), SU3327 (10 μg/mL), SU3327 (10 μg/mL)+Polymyxin E (0.25 μg/mL); the bacteria in control group were treated with a solvent, 0.1% DMSO. For K. pneumoniae 1202-45-5, drug treatment concentrations were set as follows: Polymyxin E (1 μg/mL), SU3327 (20 μg/mL), SU3327 (20 μg/mL)+Polymyxin E (1 μg/mL). 100 μL of a bacterial solution was applied on an agar plate at 1 h, 3 h, 6 h, 12 h and 24 h post drug treatment, respectively, and cultured for at least 16 h for a colony count.

K. pneumoniae 1202 = assay: In vitro bacterial growth (bactericidal) curve; format: cell-based, Klebsiella pneumoniae; details: continuous treatment for 24 h, Polymyxin E 0.25 μg/mL, SU3327 10 μg/mL, alone or combined
Method: as §2, §3, §4

[3] = system: Escherichia coli GZP08-8 (E. coli GZP08-8); assay: MIC / checkerboard assay; format: cell-based; details: for MIC after use in combination: Polymyxin E + SU3327 in combination, checkerboard; for MIC: drug alone
Description: (§5) The strains used in the tests, the strain Escherichia coli ATCC 25922 (E. coli 25922) and the strain Staphylococcus aureus ATCC 29213 (S. aureus 29213), were purchased from China Veterinary Culture Collection Center. Methicillin Resistant Staphylococcus Aureus USA300 (ATCC BAA-1717) was purchased from American Type Culture Collection. The strains used in the other experiments, the strains Escherichia coli B2 (E. coli B2), Escherichia coli GZP08-8 (E. coli GZP08-8), Klebsiella pneumoniae 1202 (K. pneumoniae 1202), Klebsiella pneumoniae 1202-45-5 (K. pneumoniae 1202-45-5), Salmonella 1-5 (Salmonella 1-5), and Shigella Y (Shigella Y) were all from National Center for Veterinary Drug Safety Evaluation of China Agricultural University, with Escherichia coli B2 (E. coli B2), Escherichia coli GZP08-8 (E. coli GZP08-8), Klebsiella pneumoniae 1202-45-5 (K. pneumoniae 1202-45-5), and Salmonella 1-5 (Salmonella 1-5) as polymyxin resistant strains containing MCR-1. Klebsiella pneumoniae 1202 (K. pneumoniae 1202) and Shigella Y (Shigella Y) were strains clinically sensitive to colistin.
(§6) The MIC of SU3327 administered alone was detected with dilution by factors. Subsequently, tests were performed with SU3327 alone, Polymyxin E (Colistin) alone, and in combination, respectively, in sterile, 96-well microplates according to checkerboard assays for the joint inhibitory activities against the above-mentioned strains, and further Fractional Inhibitory Concentration Index (FICI) was calculated. FICI of SU3327 and Polymyxin E=MIC (Polymyxin E in combination)/MIC (Polymyxin E)+MIC (SU3327 in combination)/MIC (SU3327 alone). If FICI≤0.5, synergy was identified; if 0.5<FICI≤1, an additive effect was identified; and if […], an irrelevant effect was identified.

[4] = system: Klebsiella pneumoniae 1202-45-5 (K. pneumoniae 1202-45-5); assay: MIC / checkerboard assay; format: cell-based; details: for MIC after use in combination: Polymyxin E + SU3327 in combination, checkerboard; for MIC: drug alone
Description: as §5, §6

Salmonella 1-5 = assay: MIC / checkerboard assay; format: cell-based; details: for MIC after use in combination: Polymyxin E + SU3327 in combination, checkerboard
Description: as §5, §6

[5] = system: Escherichia coli strain ATCC 25922 (E. coli 25922); assay: MIC / checkerboard assay; format: cell-based; details: for MIC after use in combination: Polymyxin E + SU3327 in combination, checkerboard; for MIC: drug alone
Description: as §5, §6

[6] = system: Staphylococcus aureus strain ATCC 29213 (S. aureus 29213); assay: MIC / checkerboard assay; format: cell-based; details: for MIC after use in combination: Polymyxin E + SU3327 in combination, checkerboard; for MIC: drug alone
Description: as §5, §6

[7] = system: Staphylococcus Aureus USA300 (S. aureus USA300); assay: MIC / checkerboard assay; format: cell-based; details: for MIC after use in combination: Polymyxin E + SU3327 in combination, checkerboard; for MIC: drug alone
Description: as §5, §6

Shigella Y = assay: MIC / checkerboard assay; format: cell-based; details: for MIC after use in combination: Polymyxin E + SU3327 in combination, checkerboard
Description: as §5, §6

[8] = system: Klebsiella pneumoniae 1202 (K. pneumoniae 1202); assay: MIC / checkerboard assay; format: cell-based; details: for MIC after use in combination: Polymyxin E + SU3327 in combination, checkerboard; for MIC: drug alone
Description: as §5, §6

[9] = system: Escherichia coli B2 (E. coli B2) containing MCR-1; assay: MIC / checkerboard assay; format: cell-based; details: for MIC after use in combination: Polymyxin E + SU3327 in combination, checkerboard; for MIC: drug alone
Description: as §5, §6

p38α = p38α (Homo sapiens, UniProt Q16539); details: cited from earlier work
p38α, sequence (Q16539 whole entry): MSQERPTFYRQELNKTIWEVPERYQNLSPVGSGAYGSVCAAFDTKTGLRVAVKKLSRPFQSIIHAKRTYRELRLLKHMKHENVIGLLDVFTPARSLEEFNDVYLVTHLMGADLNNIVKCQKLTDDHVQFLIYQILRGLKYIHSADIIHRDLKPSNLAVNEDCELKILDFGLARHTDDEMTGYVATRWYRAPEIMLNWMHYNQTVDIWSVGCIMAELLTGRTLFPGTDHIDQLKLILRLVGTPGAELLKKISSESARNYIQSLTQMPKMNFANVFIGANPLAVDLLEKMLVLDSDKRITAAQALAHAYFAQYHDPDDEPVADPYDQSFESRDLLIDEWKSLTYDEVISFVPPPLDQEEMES

Akt = details: cited from earlier work
JNK and JIP = details: read-out: IC50 (protein interaction between JNK and JIP); cited from earlier work

Row | Molecule | bacteria loading in the thigh of the mice (K. pneumoniae 1202-45-5 [1]) [Log 10 CFU/mL] | bacterial colony counts (K. pneumoniae 1202-45-5 [2]) [Log 10 CFU/mL] | bacterial colony counts (K. pneumoniae 1202) [Log 10 CFU/mL] | MIC after use in combination [3] [µg/mL] | MIC [3] [µg/mL] | MIC after use in combination [4] [µg/mL] | MIC [4] [µg/mL] | MIC after use in combination (Salmonella 1-5) [µg/mL] | MIC after use in combination [5] [µg/mL] | MIC [5] [µg/mL] | MIC after use in combination [6] [µg/mL] | MIC [6] | MIC after use in combination [7] [µg/mL] | MIC [7] | MIC after use in combination (Shigella Y) [µg/mL] | MIC after use in combination [8] [µg/mL] | MIC [8] [µg/mL] | MIC after use in combination [9] [µg/mL] | MIC [9] [µg/mL] | further results
1 | Nc1nnc(Sc2ncc([N+](=O)[O-])s2)s1 [SU3327] | 6.55 | 6.65 | 8.35 | 2.5 | 10 | 5 | 20 | 2.5 | 5 | 10 | 2.5 | 5 µg/mL | 1.25 | 5 µg/mL | 2.5 | 2.5 | 20 | 2.5 | 20 | IC50 (JNK): 700 nM; MIC (Salmonella 1-5; drug alone): 20 µg/mL; MIC (Shigella Y; drug alone): 5 µg/mL; activity for p38α kinase (p38α): low activity; activity for Akt kinase (Akt): low activity; IC50 (JNK and JIP): 239 nM
2 | Polymyxin E | 6.82 | 9.3 | 8.9 | 0.25 | 16 | 0.25 | 16 | 1 | 0.0625 | 0.125 | 64 | more than 128 μg/mL | 32 | more than 128 μg/mL | 0.032 | 0.0625 | 1 | 0.5 | 8 | bacteria loading in the thigh compared with solvent control group (K. pneumoniae 1202-45-5 [1]): not significantly different
